What all share (type): cell-based
Assay [1] deals with Acinetobacter baumannii FADDI-AB030. The assay can be described thus: microbe, parasite or virus in culture. The conditions noted are these: FADDI-AB030. In outline: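 Lipopeptide TFA salts tested against the multidrug-resistant clinical isolate by CLSI (M100-S24) broth microdilution in cation-adjusted Mueller-Hinton broth, with polymyxin B sulphate as control; MIC read.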
Assay [2] deals with Acinetobacter baumannii FADDI-AB034. The conditions noted are these: FADDI-AB034. In outline: (§1)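 Susceptibility of polymyxin-susceptible Gram-negative strains, including multidrug-resistant clinical isolates PA022 and AB034, was tested by broth microdilution. Cation-adjusted Mueller-Hinton broth and the CLSI M100-S24 method were used.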
In assay [3] the test system is Pseudomonas aeruginosa FADDI-PA022. Particulars: FADDI-PA022. The gist of the method:
as §1

Assay [4] deals with Klebsiella pneumoniae Kp BM1. Particulars: Kp BM1. The gist of the method: (§2)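 The read-out is the MIC, obtained by CLSI broth microdilution (M100-S24) in cation-adjusted Mueller-Hinton broth. The compounds were lipopeptide TFA salts, and polymyxin B sulphate served as control.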
Assay [5] concerns Pseudomonas aeruginosa FADDI-PA038. The conditions noted are these: FADDI-PA038. The gist of the method: as §1
In assay [6] the test system is Acinetobacter baumannii ATCC 17978. The conditions noted are these: ATCC 17978. In outline:
as §1

In assay [7] the test system is Enterobacter cloacae FADDI-EC001. Particulars: FADDI-EC001. In outline: as §2
In assay [8] the test system is Pseudomonas aeruginosa ATCC 27853. Particulars: ATCC 27853. In outline: as §1
Assay [9] deals with Pseudomonas aeruginosa FADDI-PA01. Particulars: FADDI-. In outline:
as §1

For assay [10], the system named is Enterobacter cloacae FADDI-EC003. Particulars: FADDI-EC003. The gist of the method: as §1
Assay [11] deals with Klebsiella pneumoniae FADDI-KP022. Particulars: FADDI-KP022. The gist of the method: as §1
The test system of assay [12] is Klebsiella pneumoniae FADDI-KP032. Particulars: FADDI-KP032. The gist of the method: as §1
Assay [13] deals with Enterobacter cloacae FADDI-EC006. Particulars: FADDI-EC006. The gist of the method:
as §1

Converted amounts (≈) assume the structure as drawn. Where a SMILES comes first, the peptide text is derived from it. Bridges are numbered along the chain shown (N, C = ends). [ ]: non-standard residue; d: D form. The star is where a group is joined. Benzothiophen(2-yl)carbonyl = O=C(c1cc2ccccc2s1)*; X24 = O=C(c1cccc(C(F)(F)F)n1)*; X49 = O=C(c1cnc(C(F)(F)F)nc1)*; X22 = Cn1c(C(=O)*)cc2ccccc21; X30 = O=C(c1ccc(Cl)cn1)*; X54 = O=C(c1cccc(Cl)n1)*; Dab = NCC[C@H](N)C(=O)O; Abu = CC[C@H](N)C(=O)O; Dap = NC[C@H](N)C(=O)O; X71 = O=C(c1sccc1Cl)* Bounds are passed on as bounds.

With `CC[C@@H]1NC(=O)[C@@H](CC(C)C)NC(=O)[C@H](CCN)NC(=O)[C@@H](NC(=O)[C@H](CN)NC(=O)[C@@H](NC(=O)[C@H](CCN)NC(=O)c2ccc(Cl)cn2)[C@@H](C)O)CCNC(=O)[C@H]([C@@H](C)O)NC(=O)[C@H](CCN)NC(=O)[C@H](CCN)NC1=O` [Compound 37] (X30-[Dab]T[Dap][Dab][Dab][dL][Abu][Dab][Dab]T; lactam 4-C), the Minimum inhibitory concentration is 0.5 µg/mL (≈ 0.444 µM) in assay [1]; 1 µg/mL (≈ 0.888 µM) in assay [2]; 0.25 µg/mL (≈ 0.222 µM) in [3]; <0.125 µg/mL in assay [4]; 0.5 µg/mL (≈ 0.444 µM) in [5]; 2 µg/mL (≈ 1.78 µM) in assay [6]. The Minimum inhibitory concentration in assay [7] is 0.25 µg/mL (≈ 0.222 µM); in assay [8], 0.25 µg/mL (≈ 0.222 µM); in [9], 0.25 µg/mL (≈ 0.222 µM); in assay [10], 0.25 µg/mL (≈ 0.222 µM); in [11] it was <0.125 µg/mL; in assay [12], <0.125 µg/mL. The compound also gave a Minimum inhibitory concentration in assay [13] of 0.5 µg/mL (≈ 0.444 µM).
For `CC(C)C[C@H]1NC(=O)[C@H](CCN)NC(=O)[C@@H](NC(=O)[C@H](CN)NC(=O)[C@@H](NC(=O)[C@H](CCN)NC(=O)c2cc3ccccc3n2C)[C@@H](C)O)CCNC(=O)[C@H]([C@@H](C)O)NC(=O)[C@H](CCN)NC(=O)[C@H](CCN)NC(=O)[C@H]([C@@H](C)O)NC1=O` [Compound 64] (X22-[Dab]T[Dap][Dab][Dab][dL]T[Dab][Dab]T; lactam 4-C), the Minimum inhibitory concentration in assay [1] stood at 1 µg/mL (≈ 0.862 µM); in assay [2], 1 µg/mL (≈ 0.862 µM); in [3], 0.25 µg/mL (≈ 0.215 µM); in assay [4] it was 0.5 µg/mL (≈ 0.431 µM); in assay [5] it was 1 µg/mL (≈ 0.862 µM); in assay [6] it was 2 µg/mL (≈ 1.72 µM). Also, the Minimum inhibitory concentration in assay [7] is 1 µg/mL (≈ 0.862 µM); in assay [8] it was 0.5 µg/mL (≈ 0.431 µM); in [9], 0.5 µg/mL (≈ 0.431 µM); in [10], 1 µg/mL (≈ 0.862 µM); in assay [11], 0.25 µg/mL (≈ 0.215 µM); in assay [12], 0.5 µg/mL (≈ 0.431 µM). In assay [13], this compound came in with a Minimum inhibitory concentration of 2 µg/mL (≈ 1.72 µM).
Regarding `CC[C@@H]1NC(=O)[C@@H](CC(C)C)NC(=O)[C@H](CCN)NC(=O)[C@@H](NC(=O)[C@H](CN)NC(=O)[C@@H](NC(=O)[C@H](CCN)NC(=O)c2cccc(C(F)(F)F)n2)[C@@H](C)O)CCNC(=O)[C@H]([C@@H](C)O)NC(=O)[C@H](CCN)NC(=O)[C@H](CCN)NC1=O` [Compound 44] (X24-[Dab]T[Dap][Dab][Dab][dL][Abu][Dab][Dab]T; lactam 4-C), the Minimum inhibitory concentration in assay [1] is 1 µg/mL (≈ 0.862 µM); in assay [2] it was 2 µg/mL (≈ 1.72 µM); in assay [3], 0.25 µg/mL (≈ 0.215 µM); in assay [4], <0.125 µg/mL; in assay [5], 0.5 µg/mL (≈ 0.431 µM); in assay [6], 2 µg/mL (≈ 1.72 µM). The Minimum inhibitory concentration in [7], in [8], in assay [9], in assay [10], in assay [11] and in assay [12] was <0.125 µg/mL throughout. Further, the Minimum inhibitory concentration in [13] turned out to be 0.5 µg/mL (≈ 0.431 µM).
With `CC[C@@H]1NC(=O)[C@@H](CC(C)C)NC(=O)[C@H](CCN)NC(=O)[C@@H](NC(=O)[C@H](CN)NC(=O)[C@@H](NC(=O)[C@H](CCN)NC(=O)c2cnc(C(F)(F)F)nc2)[C@@H](C)O)CCNC(=O)[C@H]([C@@H](C)O)NC(=O)[C@H](CCN)NC(=O)[C@H](CCN)NC1=O` [Compound 45] (X49-[Dab]T[Dap][Dab][Dab][dL][Abu][Dab][Dab]T; lactam 4-C), the Minimum inhibitory concentration in assay [1] was 0.5 µg/mL (≈ 0.431 µM); in assay [2], 0.5 µg/mL (≈ 0.431 µM); in assay [3], 0.25 µg/mL (≈ 0.215 µM); in assay [4], 0.5 µg/mL (≈ 0.431 µM); in assay [5], 1 µg/mL (≈ 0.861 µM); in assay [6], 2 µg/mL (≈ 1.72 µM). Also, the Minimum inhibitory concentration in assay [7] is <0.125 µg/mL; in [8], 0.25 µg/mL (≈ 0.215 µM); in assay [9], <0.125 µg/mL; in assay [10], 2 µg/mL (≈ 1.72 µM); in [11], <0.125 µg/mL; in [12], 0.5 µg/mL (≈ 0.431 µM). For the same compound, the Minimum inhibitory concentration in assay [13] came out at 2 µg/mL (≈ 1.72 µM).
`CC[C@@H]1NC(=O)[C@@H](CC(C)C)NC(=O)[C@H](CCN)NC(=O)[C@@H](NC(=O)[C@H](CN)NC(=O)[C@@H](NC(=O)[C@H](CCN)NC(=O)c2cc3ccccc3s2)[C@@H](C)O)CCNC(=O)[C@H]([C@@H](C)O)NC(=O)[C@H](CCN)NC(=O)[C@H](CCN)NC1=O` [Compound 50] ({Benzothiophen(2-yl)carbonyl}-[Dab]T[Dap][Dab][Dab][dL][Abu][Dab][Dab]T; lactam 4-C): the Minimum inhibitory concentration in [1] is 0.5 µg/mL (≈ 0.436 µM); in [2] it was <0.125 µg/mL; in assay [3], 0.25 µg/mL (≈ 0.218 µM); in assay [4] it was 0.5 µg/mL (≈ 0.436 µM); in assay [5], 0.25 µg/mL (≈ 0.218 µM); in assay [6], <0.125 µg/mL. In addition, the Minimum inhibitory concentration in [7] is 0.25 µg/mL (≈ 0.218 µM); in [8], 0.5 µg/mL (≈ 0.436 µM); in [9], <0.125 µg/mL; in assay [10] it was 0.5 µg/mL (≈ 0.436 µM); in [11] it was <0.125 µg/mL; in assay [12], 0.25 µg/mL (≈ 0.218 µM). The Minimum inhibitory concentration in [13] stood at 0.5 µg/mL (≈ 0.436 µM).
Take `CC[C@@H]1NC(=O)[C@@H](CC(C)C)NC(=O)[C@H](CCN)NC(=O)[C@@H](NC(=O)[C@H](CN)NC(=O)[C@@H](NC(=O)[C@H](CCN)NC(=O)c2sccc2Cl)[C@@H](C)O)CCNC(=O)[C@H]([C@@H](C)O)NC(=O)[C@H](CCN)NC(=O)[C@H](CCN)NC1=O` [Compound 89] (X71-[Dab]T[Dap][Dab][Dab][dL][Abu][Dab][Dab]T; lactam 4-C): the Minimum inhibitory concentration was 2 µg/mL (≈ 1.77 µM) in assay [1]; 4 µg/mL (≈ 3.53 µM) in assay [2]; 0.25 µg/mL (≈ 0.221 µM) in [3]; <0.125 µg/mL in assay [4]; 1 µg/mL (≈ 0.884 µM) in [5]; 4 µg/mL (≈ 3.53 µM) in [6]. Also, the Minimum inhibitory concentration was <0.125 µg/mL in [7]; 0.25 µg/mL (≈ 0.221 µM) in assay [8]; 0.25 µg/mL (≈ 0.221 µM) in assay [9]; <0.125 µg/mL in assay [10]; <0.125 µg/mL in [11]; 0.25 µg/mL (≈ 0.221 µM) in assay [12]. Further, the Minimum inhibitory concentration in [13] is <0.125 µg/mL.
`CC[C@@H]1NC(=O)[C@@H](CC(C)C)NC(=O)[C@H](CCN)NC(=O)[C@@H](NC(=O)[C@H](CN)NC(=O)[C@@H](NC(=O)[C@H](CCN)NC(=O)c2cccc(Cl)n2)[C@@H](C)O)CCNC(=O)[C@H]([C@@H](C)O)NC(=O)[C@H](CCN)NC(=O)[C@H](CCN)NC1=O` [Compound 43] (X54-[Dab]T[Dap][Dab][Dab][dL][Abu][Dab][Dab]T; lactam 4-C): the Minimum inhibitory concentration in assay [1] was found to be 4 µg/mL (≈ 3.55 µM); in assay [2] it was 4 µg/mL (≈ 3.55 µM); in assay [3] it was 0.25 µg/mL (≈ 0.222 µM); in assay [4], 0.25 µg/mL (≈ 0.222 µM); in [5], 1 µg/mL (≈ 0.888 µM); in assay [6], 4 µg/mL (≈ 3.55 µM). Further, the Minimum inhibitory concentration in assay [7] was <0.125 µg/mL; in assay [8], 0.25 µg/mL (≈ 0.222 µM); in [9] it was 0.25 µg/mL (≈ 0.222 µM); in assay [10] it was 0.25 µg/mL (≈ 0.222 µM); in assay [11], <0.125 µg/mL; in assay [12] it was 0.25 µg/mL (≈ 0.222 µM). Also, the Minimum inhibitory concentration in assay [13] was 0.5 µg/mL (≈ 0.444 µM).

Source of the values: US11225505B2, “Antimicrobial polymyxin derivative compounds” (MONASH UNIVERSITY, priority 2015, dated 2022).
